Article doi:10.1101/2024.06.10.598391v1 (bioRxiv, 2024)

Experiments:
[1] = Micelle morphology by negative-stain TEM; format: physicochemical; conditions: 5 µM; for Morphology: negative-stain TEM (NanoW), 120 kV, categories by L/D; for Cylinder length / Sphere diameter: negative-stain TEM
[2] = tested on: RAW 264.7 (macrophage-like cells - Mφs); experiment: Cell viability of LPS-treated Mφs by flow cytometry; format: cell-based, murine; conditions: for cell viability relative to untreated cells: 10 µM
[3] = Secondary structure by circular dichroism; format: physicochemical; conditions: CD, 40 μM in PBS; for organized secondary structure (α-helix and β-sheet): sum of α-helix and β-sheet; for combined α-helix and random coil content: sum of α-helix and random coil
[4] = tested on: RAW 264.7 (macrophage-like cells - Mφs); experiment: Micelle association with Mφs by flow cytometry; format: cell-based, murine; conditions: 5 µM, 1:19 FAM-PA:Non-FAM-PA
[5] = tested on: RAW 264.7 (macrophage-like cells - Mφs); experiment: Micelle surface attachment and internalization by Mφs, confocal microscopy; format: cell-based, murine; conditions: 5 µM, 1:19 FAM-PA:Non-FAM-PA, LPS 0.1 µg/mL
[6] = tested on: secreted tumor necrosis factor-α (TNF-α) of LPS-activated RAW 264.7 Mφs; experiment: TNF-α secretion of LPS-activated Mφs; format: cell-based, murine; conditions: 6 h, ELISA
[7] = LPS-treated (0.1 µg/mL) Mφs, six hours, flow cytometry

Morphology [1] | Cylinder length [1] | Sphere diameter [1] | Substance | also measured
Mostly Large/Long Cylinders | 1000 - 9000 nm | – | VIP(^SVIP)-KEKEKEKE-CONH2 [PalmK-^SVIP-(KE)4] | –
Amorphous aggregates | – | – | Ac-NSDLIATDSYTRMRKQVLANKKFHYLVN-NH2 [^SVIP] | viability of treated cells ([2]; LPS-treated Mφs, 5 µM, 6 hours (Figure 3a)): remained high; organized secondary structure (α-helix and β-sheet) [3]: 46.6%
Spheres | – | 10 - 15 nm | VIP(^SVIP)-KEKEKEKE-CONH2 [Palm2K-^SVIP-(KE)4] | combined α-helix and random coil content [3]: 41.5%
Mostly Spheres | – | 10 - 15 nm | VIP(^SVIP)-KEKEKKKK-CONH2 [Palm2K-VIP-(KE)2K4] | combined α-helix and random coil content [3]: 46.5%
Spheres + Short/Small Cylinders | 20 - 300 nm | 10 - 20 nm | VIP(^SVIP)-KEKEEEEE-CONH2 [Palm2K-VIP-(KE)2E4] | MFI of micelle-associated Mφs ([4]; 6 hours): greatest Mφ association; micelle location on/in Mφs ([5]; 6 hours): cell membranes coated
Small/Medium Cylinders | 100 - 700 nm | – | VIP(^SVIP)-KEKEKEKE-CONH2 [Palm2K-VIP-(KE)4] | cell viability relative to untreated cells [2, 7]: 70 - 80%; modulation of TNF-α secretion ([6]; 5 µM and 10 µM): significant TNF-α suppression; micelle location on/in Mφs ([5]; 1 hour): only found along the Mφ cell membrane
Spheres + Short/Small Cylinders | 50 - 250 nm | 10 - 20 nm | VIP(^SVIP)-KEKEEEEE-CONH2 [Palm2K-^SVIP-(KE)2E4] | –
lacks any particle structure | – | – | Ac-HSDAVFTDNYTRLRKQMAVKKYLNSILN-CONH2 [VIP, reference compound] | cytotoxicity ([2]; LPS-treated (0.1 µg/mL) Mφs, up to 5 µM, six hours, flow cytometry): Minimal cytotoxicity; organized secondary structure (α-helix and β-sheet) [3]: 49.4%; modulation of TNF-α secretion ([6]; 1 µM and 2.5 µM): No appreciable modulation; modulation of TNF-α secretion ([6]; 5 µM and 10 µM): significant TNF-α suppression
Small/Medium Cylinders | 100 - 400 nm | – | VIP(^SVIP)-KEKEKKKK-CONH2 [Palm2K-^SVIP-(KE)2K4] | percentage of Mφs associated with fluorophore-labeled micelles ([4]; 1 hour): Mφs preferred to associate
Mostly Large/Long Cylinders | 1000 - 9000 nm | – | VIP(^SVIP)-KEKEKEKE-CONH2 [PalmK-VIP-(KE)4] | cell viability relative to untreated cells [2, 7]: 70 - 80%; micelle location on/in Mφs ([5]; 1 hour): only found along the Mφ cell membrane
